Here are results for 1 compound from US9186334B2 (Nuvo Research Inc., priority 2009, dated 2015).

The conditions of the data set: transdermal, 12 subjects.

Protocol: Specifically, a single site, open label study was conducted on 12 subjects, with 4-way cross-over. Four (4) patches were applied for 2, 4, or 12 hours.

With `CCN(CC)CC(=O)Nc1c(C)cccc1C` [lidocaine], the “rate of delivery, heated patch versus unheated patch” value was “more rapidly”.
